# Test system: not given
# Assay: not given
# Conditions: not given
row,Compound,melting point
1,"CNC(=O)[C@H]1CC[C@H](Oc2cccc3nc(C)c(C(=O)O)c(N)c23)CC1 [Example 22, 4-amino-2-methyl-5-(((1,4)-trans-4-(methylcarbamoyl)cyclohexyl)oxy)quinoline-3-carboxylic acid]",195 to 198 °C
2,"Cc1nc2cccc(O[C@H]3CC[C@H](NC(=O)C(C)C)CC3)c2c(N)c1C(=O)O [Example 4, 4-amino-5-(((1,4)-trans-4-isobutyramidocyclohexyl)oxy)-2-methylquinoline-3-carboxylic acid]",183 to 185 °C
3,"CCCCNC(=O)C(C)(C)COc1cccc2nc(C)c(C(=O)O)c(N)c12 [Example 15, 4-amino-5-(3-(butylamino)-2,2-dimethyl-3-oxopropoxy)-2-methylquinoline-3-carboxylic acid]",195 to 199 °C
4,"Cc1nc2cccc(OCC(C)(C)C(=O)NCC3CC3)c2c(N)c1C(=O)O [Example 14, 4-amino-5-(3-((cyclopropylmethyl)amino)-2,2-dimethyl-3-oxopropoxy)-2-methylquinoline-3-carboxylic acid]",177 to 179 °C
5,"Cc1nc2cccc(OCC(C)(C)C(=O)NC3CCC3)c2c(N)c1C(=O)O [Example 3, 4-amino-5-(3-(cyclobutylamino)-2,2-dimethyl-3-oxopropoxy)-2-methylquino-line-3-carboxylic acid]",183 to 187 °C
6,"CCC(=O)N1CCC(COc2cccc3nc(C)c(C(=O)O)c(N)c23)CC1 [Example 21, 4-amino-2-methyl-5-((1-propionylpiperidin-4-yl)methoxy)quinoline-3-carboxylic acid]",168 to 170 °C
7,"Cc1nc2cccc(OCC(C)(C)C(=O)NCC3CCC3)c2c(N)c1C(=O)O [Example 19, 4-amino-5-(3-((cyclobutylmethyl)amino)-2,2-dimethyl-3-oxopropoxy)-2-methylquinoline-3-carboxylic acid]",170 to 172 °C
8,"Cc1nc2cccc(OCC(C)(C)NC(=O)C3CCOCC3)c2c(N)c1C(=O)O [Example 7, 4-amino-2-methyl-5-(2-methyl-2-(tetrahydro-2H-pyran-4-carboxamido)-propoxy)quinoline-3-carboxylic acid]",170 to 173 °C
9,"Cc1nc2cccc(OC3CCN(C(=O)C(C)C)CC3)c2c(N)c1C(=O)O [Example 10, 4-amino-5-((1-isobutyrylpiperidin-4-yl)oxy)-2-methylquinoline-3-carboxylic acid]",184 to 186 °C

# Next, values leading:
row,melting point,Compound
1,176 to 179 °C,"Cc1nc2cccc(OCC(C)(C)C(=O)NCC(C)C)c2c(N)c1C(=O)O [Compound C6, 4-amino-5-(3-(isobutylamino)-2,2-dimethyl-3-oxopropoxy)-2-methylquino-line-3-carboxylic acid]"
2,168 to 170 °C,"CCNC(=O)C(C)(C)COc1cccc2nc(C)c(C(=O)O)c(N)c12 [Example 12, 4-amino-5-(3-(ethylamino)-2,2-dimethyl-3-oxopropoxy)-2-methylquinoline-3-carboxylic acid]"
3,184 to 186 °C,"Cc1nc2cccc(OCC(C)(C)NC(=O)C(C)C)c2c(N)c1C(=O)O [Example 6, 4-amino-5-(2-isobutyramido-2-methylpropoxy)-2-methylquinoline-3-carboxylic acid]"
4,227 to 229 °C,"Cc1nc2cccc(OCC(C)(C)C(=O)NC3CC3)c2c(N)c1C(=O)O [Example 2, 4-amino-5-(3-(cyclopropylamino)-2,2-dimethyl-3-oxopropoxy)-2-methyl-quinoline-3-carboxylic acid]"
5,173 to 175 °C,"Cc1nc2cccc(OCC(C)(C)NC(=O)CN3CCOCC3)c2c(N)c1C(=O)O [Example 17, 4-amino-2-methyl-5-(2-methyl-2-(2-morpholinoacetamido)propoxy)quinoline-3-carboxylic acid]"
6,175 to 178 °C,"Cc1nc2cccc(OCC(C)(C)NC(=O)CC3CCOCC3)c2c(N)c1C(=O)O [Example 13, 4-amino-2-methyl-5-(2-methyl-2-(2-(tetrahydro-2H-pyran-4-yl)acetamido)-propoxy)quinoline-3-carboxylic acid]"
7,195 to 198 °C,"Cc1nc2cccc(OCC(C)(C)NC(=O)CC(C)C)c2c(N)c1C(=O)O [Example 5, 4-amino-2-methyl-5-(2-methyl-2-(3-methylbutanamido)propoxy)quinoline-3-carboxylic acid]"
8,189 to 193 °C,"CCC(=O)NC(C)(C)COc1cccc2nc(C)c(C(=O)O)c(N)c12 [Example 8, 4-amino-2-methyl-5-(2-methyl-2-propionamidopropoxy)quinoline-3-carboxylic acid]"
9,172 to 174 °C,"CCC(CC)NC(=O)C(C)(C)COc1cccc2nc(C)c(C(=O)O)c(N)c12 [Example 16, 4-amino-5-(2,2-dimethyl-3-oxo-3-(pentan-3-ylamino)propoxy)-2-methyl-quinoline-3-carboxylic acid]"
10,186 to 190 °C,"Cc1nc2cccc(OCC(C)(C)NC(=O)C3CCC3)c2c(N)c1C(=O)O [Example 9, 4-amino-5-(2-(cyclobutanecarboxamido)-2-methylpropoxy)-2-methylquino-line-3-carboxylic acid]"

# Target: T1, hT1R2/R3 (Homo sapiens, UniProt Q7RTX0+Q8TE23)
# T1 construct: expressed in transfected cells; host or cells: 'hT1R2/R3-mammalian Gal5 cells'
# T1 sequence (Q8TE23 20-839): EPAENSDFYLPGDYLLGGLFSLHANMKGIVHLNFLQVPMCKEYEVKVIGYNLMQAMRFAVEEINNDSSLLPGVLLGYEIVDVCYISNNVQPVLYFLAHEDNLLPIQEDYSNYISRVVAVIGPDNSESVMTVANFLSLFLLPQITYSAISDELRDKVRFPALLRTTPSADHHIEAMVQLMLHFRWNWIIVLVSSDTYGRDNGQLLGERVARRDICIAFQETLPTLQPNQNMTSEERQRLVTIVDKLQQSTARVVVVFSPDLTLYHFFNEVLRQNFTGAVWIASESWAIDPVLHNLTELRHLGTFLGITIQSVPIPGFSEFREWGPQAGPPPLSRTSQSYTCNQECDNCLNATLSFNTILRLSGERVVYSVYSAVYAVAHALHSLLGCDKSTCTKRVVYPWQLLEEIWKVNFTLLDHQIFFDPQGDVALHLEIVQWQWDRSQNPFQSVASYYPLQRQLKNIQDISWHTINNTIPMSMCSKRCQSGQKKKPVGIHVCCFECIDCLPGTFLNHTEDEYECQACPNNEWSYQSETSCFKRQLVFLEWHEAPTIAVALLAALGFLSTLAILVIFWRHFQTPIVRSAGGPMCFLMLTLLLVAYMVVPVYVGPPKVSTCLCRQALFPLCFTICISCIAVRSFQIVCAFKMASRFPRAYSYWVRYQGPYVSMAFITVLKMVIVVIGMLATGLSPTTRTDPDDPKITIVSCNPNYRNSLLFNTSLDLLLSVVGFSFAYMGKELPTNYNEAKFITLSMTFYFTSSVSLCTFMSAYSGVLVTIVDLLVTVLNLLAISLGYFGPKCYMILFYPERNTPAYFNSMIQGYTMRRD
# T1 sequence (Q7RTX0 21-852): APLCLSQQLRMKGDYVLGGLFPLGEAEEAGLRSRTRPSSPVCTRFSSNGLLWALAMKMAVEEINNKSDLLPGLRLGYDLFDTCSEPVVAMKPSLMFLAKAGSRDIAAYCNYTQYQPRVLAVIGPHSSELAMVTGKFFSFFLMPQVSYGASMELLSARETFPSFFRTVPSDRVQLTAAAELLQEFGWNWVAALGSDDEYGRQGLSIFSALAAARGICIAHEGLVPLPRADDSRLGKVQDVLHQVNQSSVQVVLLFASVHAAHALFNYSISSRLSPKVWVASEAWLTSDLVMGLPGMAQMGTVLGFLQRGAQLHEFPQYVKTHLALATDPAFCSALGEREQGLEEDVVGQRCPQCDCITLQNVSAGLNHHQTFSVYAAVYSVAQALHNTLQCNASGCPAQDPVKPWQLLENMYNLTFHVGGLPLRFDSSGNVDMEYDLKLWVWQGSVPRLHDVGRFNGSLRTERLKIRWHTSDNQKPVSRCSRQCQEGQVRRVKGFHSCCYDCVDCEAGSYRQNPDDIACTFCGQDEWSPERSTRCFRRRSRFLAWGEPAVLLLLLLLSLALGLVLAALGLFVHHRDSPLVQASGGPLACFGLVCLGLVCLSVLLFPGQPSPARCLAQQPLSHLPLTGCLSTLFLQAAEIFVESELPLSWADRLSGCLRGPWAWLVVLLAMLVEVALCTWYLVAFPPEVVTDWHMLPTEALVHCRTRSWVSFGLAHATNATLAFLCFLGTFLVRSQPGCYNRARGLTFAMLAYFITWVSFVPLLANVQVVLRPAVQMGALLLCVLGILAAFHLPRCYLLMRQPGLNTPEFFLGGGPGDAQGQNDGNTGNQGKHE
# Assay: Screening for sweet enhancers: FLIPR calcium assay in hT1R2/R3-mammalian Gal5 cells, leftward shift of sweetener EC50
# Assay type: cell-based
# Conditions: compound at 10 μM; sweetener sucralose
# Protocol: hT1R2/R3-mammalian Gal5 cells were seeded in 384-well-clear bottom plates (Fisher) at a density of ˜32,000 cells/well and grown overnight. On the day of the experiment, hT1R2/R3-mammalian Gal5 were loaded with the calcium indicator Fluo3AM ([…]) (Invitrogen, Carlsbad, Calif.) in D-PBS (Invitrogen, Carlsbad, Calif.) using a Multidrop. Cells were incubated for 1 hour at room temperature and excess dye was washed out with D-PBS using an EMBLA cell washer (Molecular Devices, Sunnyvale, Calif.), leaving a residual volume of […]. Sweeteners and test compounds were prepared at 4× final concentration and mixed 1:1 in a 384-well Greiner plate (bringing the sweeteners and test compounds concentrations down to 2× final concentration). After 30 minutes of rest time at room temperature, Fluo3AM-loaded cell plates, and the sweetener/compound plate mixture were loaded into a Fluorometric Imaging Plate Reader (FLIPR) (Molecular Devices, Sunnyvale, Calif.). Imaging was performed using a 480 nm excitation and a 535 emission and was initiated with the acquisition of the baseline fluorescence for a period of 7 seconds. Then, the cells were stimulated on line with addition of […] stimuli/well. Subsequent images were acquired every other second for a period of 2 minutes. Raw fluorescence counts were then normalized in each well (using custom made data import software) by calculating delta F/f values (maximum fluorescent count obtained after stimulation−minimal fluorescent count obtained before stimulation/minimal fluorescent count obtained before stimulation). EC50s were determined using a non-linear regression algorithm (GraphPad PRISM, San Diego, Calif.), where the Hill slope, bottom asymptotes and top asymptotes were allow to vary. Enhancement properties of test compounds were quantified by determining the magnitude of the leftward shift in the sweeteners EC50 values (or an EC50 ratio): the value of the EC50 measured in the absence of the enhancer divided by the value of the EC50 measured in the presence of the enhancer).
# The present compounds have been tested and shown sweet taste enhancing activities for sucrose, sucralose, and/or fructose as shown in Table E (EC50 ratio for sucrose at about 10 μM), Table F (EC50 ratio for sucralose at about 10 μM), and Table H (EC50 ratio for fructose at about 50 µM). […] The compounds listed in Tables E, F and H are Examples described above. For example, Compound C6 listed in Tables E and F is Example 18 described above.
row,"EC50 Ratio, Sucralose Enhancement",Compound
1,3.8,"Cc1nc2cccc(OCC(C)(C)C(=O)NCC(C)C)c2c(N)c1C(=O)O [Compound C6, 4-amino-5-(3-(isobutylamino)-2,2-dimethyl-3-oxopropoxy)-2-methylquino-line-3-carboxylic acid]"
2,4.3,Cc1nc2cccc(OCC(C)(C)NC(=O)CC(C)C)c2c(N)c1C(=O)O [Compound O5]

# Same assay, conditions: compound at 10 μM; sweetener sucrose
row,"EC50 Ratio, Sucrose Enhancement",Compound
1,11.0,"Cc1nc2cccc(OCC(C)(C)C(=O)NCC(C)C)c2c(N)c1C(=O)O [Compound C6, 4-amino-5-(3-(isobutylamino)-2,2-dimethyl-3-oxopropoxy)-2-methylquino-line-3-carboxylic acid]"
2,6.0,Cc1nc2cccc(OCC(C)(C)NC(=O)CC(C)C)c2c(N)c1C(=O)O [Compound O5]

# Same assay, conditions: compound at 50 μM; sweetener fructose
row,"EC50 Ratio, Fructose Enhancement",Compound
1,2.6,Cc1nc2cccc(OCC(C)(C)NC(=O)CC(C)C)c2c(N)c1C(=O)O [Compound O5]
